molecular target: MAPK14 (human), Q16539 [p38(A157V) Mutant Enzyme Inhibition Assay]; experiment: p38(A157V) Mutant Enzyme Inhibition Assay
Sequence (Q16539 whole entry, looked up, stated change not applied): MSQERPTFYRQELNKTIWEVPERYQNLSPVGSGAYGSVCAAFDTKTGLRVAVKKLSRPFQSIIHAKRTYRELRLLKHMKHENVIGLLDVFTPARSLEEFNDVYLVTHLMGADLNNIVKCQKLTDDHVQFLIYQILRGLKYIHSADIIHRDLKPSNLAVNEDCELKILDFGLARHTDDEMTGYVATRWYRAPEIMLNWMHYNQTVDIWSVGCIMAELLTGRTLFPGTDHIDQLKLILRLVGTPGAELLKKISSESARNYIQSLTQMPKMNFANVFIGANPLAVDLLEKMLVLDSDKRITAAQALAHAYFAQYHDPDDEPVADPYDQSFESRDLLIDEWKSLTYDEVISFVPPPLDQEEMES

Row | Compound | IC50
1 | C[C@H](Nc1cc(-c2nc(C3CCCNC3)n(C)c2-c2cccc(C(F)(F)F)c2)ccn1)c1ccccc1 (some centres not stated) | 13 nM
2 | Cn1c(C2CCNCC2)nc(-c2cccc(C(F)(F)F)c2)c1-c1ccncc1 | < 0.5 nM
3 | C[S+]([O-])c1ccc(-c2cc(-c3ccc(F)cc3)c(-c3ccncc3)[nH]2)cc1 (configuration not stated) | 58 nM
4 | C[S+]([O-])c1ccc(-c2cc(-c3ccc(F)c(F)c3)c(-c3ccncc3)[nH]2)cc1 (configuration not stated) | 450 nM

molecular target: MAPK14 (human), Q16539 [p38(M109A) Mutant Enzyme Inhibition Assay]; experiment: p38(M109A) Mutant Enzyme Inhibition Assay
Sequence (Q16539 whole entry, looked up, stated change not applied): as above

Row | Compound | IC50
5 | C[C@H](Nc1cc(-c2nc(C3CCCNC3)n(C)c2-c2cccc(C(F)(F)F)c2)ccn1)c1ccccc1 (some centres not stated) | 712 nM
6 | Cn1c(C2CCNCC2)nc(-c2cccc(C(F)(F)F)c2)c1-c1ccncc1 | 46 nM
7 | C[S+]([O-])c1ccc(-c2cc(-c3ccc(F)cc3)c(-c3ccncc3)[nH]2)cc1 (configuration not stated) | 7.5 nM
8 | C[S+]([O-])c1ccc(-c2cc(-c3ccc(F)c(F)c3)c(-c3ccncc3)[nH]2)cc1 (configuration not stated) | 37 nM

molecular target: MAPK14 (human) (UniProt Q16539); experiment: p38 Enzyme Inhibition Assay
Sequence (Q16539 whole entry, looked up): as the sequence (Q16539 whole entry, looked up, stated change not applied) above

Row | Compound | IC50
9 | C[C@H](Nc1cc(-c2nc(C3CCCNC3)n(C)c2-c2cccc(C(F)(F)F)c2)ccn1)c1ccccc1 (some centres not stated) | 94 nM
10 | Cn1c(C2CCNCC2)nc(-c2cccc(C(F)(F)F)c2)c1-c1ccncc1 | 7 nM
11 | C[S+]([O-])c1ccc(-c2cc(-c3ccc(F)cc3)c(-c3ccncc3)[nH]2)cc1 (configuration not stated) | 4 nM
12 | C[S+]([O-])c1ccc(-c2cc(-c3ccc(F)c(F)c3)c(-c3ccncc3)[nH]2)cc1 (configuration not stated) | 12 nM
